The values that follow come from PMC6560211, “ApoAI-derived peptide increases glucose tolerance and prevents formation of atherosclerosis in mice” (Diabetologia, 2019).

The subject of this assay is C2C12 myotubes. Put plainly: Glucose uptake in muscle myotubes. In kind it is cell-based, rat. Conditions: different concentrations of RG54; three independent experiments. Here is the method:
C2C12 myoblasts were differentiated to myotubes by switching from growth media to 2% FBS DMEM for 7 days, with the addition of cytosine arabinoside (Sigma, Stockholm, Sweden) from day 3 to 5 to eliminate proliferating cells. Prior to stimulation, cells starved for 2 h in serum-free DMEM were treated as described and glucose uptake measurements were carried out. See ESM Methods for more details.
Fig. 3 RG54 induces skeletal muscle glucose uptake and primes INS-1E cells to increase GSIS. (a) C2C12 skeletal muscle myotubes were incubated in the absence or presence of different concentrations of RG54 or with insulin, followed by glucose uptake measurements. Values are means ± SEM from three independent experiments. *p≤0.05, **p≤0.01, ***p≤0.001 vs control. (b) INS-1E cells were incubated for 2 h in the absence or presence of different concentrations of RG54 in a low-glucose environment (preincubation). Buffer was replaced with one containing low (3.3 mmol/l) or high (20 mmol/l) glucose but no RG54 peptide. Insulin secretion was measured after 1 h glucose challenge. […]
No statistical methods were used to predetermine sample sizes, but sample sizes are similar to those reported in the field. […] Group allocation was blinded for all mouse work when possible (such as collection of blood or tissues, sample quantification and analysis, and atherosclerosis scoring). […]

No end group written: not given here.

Consider “Ac-AEYHAKATEHLSTLSEKAKPALEDLRQGLLPVLESFKVSFLSALEEYTKKLNTQ [RG54]”, for which the glucose uptake entry is “dose-dependent stimulation”.
